From publication PMC6934184, “Selective DNA-PKcs inhibition extends the therapeutic index of localized radiotherapy and chemotherapy” (The Journal of Clinical Investigation, 2019)

Target: T1, DYRK2 (Homo sapiens, UniProt Q92630)
T1 construct: purchased Thermo Fisher Scientific (Life Technologies) SelectScreen
Test: SelectScreen LanthaScreen
Type: binding
Conditions: read-out: % displacement
How it was run: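 NU5455 was profiled across the SelectScreen Broad panel of kinase activity and binding assays. Z'LYTE reactions such as CSF1R ran at apparent Km ATP, while the Adapta CAMK1 assay used ATP listed as 10. Values are given as percent.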

T1 sequence (Q92630 whole entry): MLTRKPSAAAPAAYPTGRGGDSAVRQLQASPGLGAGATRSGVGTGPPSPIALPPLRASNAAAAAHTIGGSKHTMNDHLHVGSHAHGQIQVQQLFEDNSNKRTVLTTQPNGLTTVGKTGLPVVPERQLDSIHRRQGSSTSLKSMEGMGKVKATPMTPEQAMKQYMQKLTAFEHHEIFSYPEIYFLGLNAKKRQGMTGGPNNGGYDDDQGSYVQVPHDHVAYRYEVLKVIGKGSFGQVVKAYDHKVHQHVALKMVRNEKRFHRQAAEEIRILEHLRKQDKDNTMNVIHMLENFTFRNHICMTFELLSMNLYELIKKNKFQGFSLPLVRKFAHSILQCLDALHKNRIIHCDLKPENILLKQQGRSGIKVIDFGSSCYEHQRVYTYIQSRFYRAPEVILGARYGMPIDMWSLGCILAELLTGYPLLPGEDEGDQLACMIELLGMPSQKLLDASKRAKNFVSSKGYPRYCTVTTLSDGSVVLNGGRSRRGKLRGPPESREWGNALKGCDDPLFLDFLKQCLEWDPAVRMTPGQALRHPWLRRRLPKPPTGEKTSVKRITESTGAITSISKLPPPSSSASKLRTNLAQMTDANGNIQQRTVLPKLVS

CN(C(=O)CN1CCOCC1)c1ccc2sc3c(-c4cccc5c(=O)cc(N6CC7CCC(C6)O7)oc45)cccc3c2c1 [NU5455]
inhibition at 1 µM: 5%
